# Experimental data taken from PubChem BioAssay (NCI).
# Where “and” joins values, the source holds several entries; their conditions need not be identical. Equal entries are not always repeated.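 Cells were grown in 96-well plates and exposed to each compound for 48 hours at five concentrations; endpoints were interpolated linearly between bracketing concentrations, or set to the highest concentration if not reached. Here, GI50 denotes the concentration required for 50% inhibition of growth. At the TGI there is no net growth.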
# Tests used:
# Experiment in all cases: inhibition of tumour cell growth, NCI panel, 48 h
# [1] = tested on: SNB-19 CNS
# [2] = tested on: HCC-2998 colon
# [3] = tested on: IGROV1 ovarian
# [4] = tested on: MALME-3M melanoma
# [5] = tested on: ACHN renal
# [6] = tested on: KM12 colon
# [7] = tested on: TK-10 renal
# [8] = tested on: NCI-H522 lung
# [9] = tested on: NCI-H23 lung
# [10] = tested on: A549 NSCLC
# [11] = tested on: LOX IMVI melanoma
# [12] = tested on: SK-MEL-2 melanoma
# [13] = tested on: OVCAR-5 ovarian
SMILES,GI50 [1] [µM],TGI [1],TGI [2] [µM],GI50 [3] [µM],GI50 [4] [µM],TGI [5],TGI [6],GI50 [7] [µM],TGI [7],TGI [8],GI50 [9] [µM],TGI [9] [µM],TGI [10],TGI [11] [µM],TGI [3],TGI [12],TGI [4],TGI [13],GI50 [11] [µM],GI50 [13]
CCCCCC(=O)N[C@@H](c1ccco1)[C@@H](O)C(=O)O[C@H]1C[C@@]2(O)[C@@H](OC(=O)c3ccccc3)[C@@H]3[C@]4(OC(C)=O)CO[C@@H]4C[C@H](O)[C@@]3(C)C(=O)[C@H](OC(C)=O)C(=C1C)C2(C)C,0.00055,> 25 µM,> 25,0.00129,0.000357,> 25 µM,> 25 µM,0.0275,18.2 µM,0.00228 µM,0.000239,> 25,,,,,,,,
C[N+](C)(CCCCCC[N+](C)(C)CCCN1C(=O)c2cccc3cccc(c23)C1=O)CCCN1C(=O)c2cccc3cccc(c23)C1=O,,> 100 µM,,,,> 100 µM,> 100 µM,,> 100 µM,> 100 µM,,> 100,> 100 µM,> 100,> 100 µM,> 100 µM,> 100 µM,> 100 µM,,
COC(=O)C(CC(C)C)NC(=O)C(NC(=O)c1ccc(-c2ccc(Cl)cc2Cl)o1)C(C)C (centres undefined),,> 100 µM,31.7,,,85.6 µM,58.9 µM,,84.5 µM,55.5 µM,,> 100,> 100 µM,30.9,> 100 µM,63.2 µM,,> 100 µM,,
CC(C)=CCCC(C)(OC1OC(CO)C(O)C(O)C1O)C1CCC2(C)C1C(O)CC1C3(C)CCC(O)C(C)(C)C3C(OC3OC(CO)C(O)C(O)C3OC3OC(C)C(O)C(O)C3O)CC12C (centres undefined) (tested in a mixture with another compound),,> 75 µM,> 75,,,> 75 µM,> 75 µM,,> 75 µM,> 75 µM,,> 75,> 75 µM,> 75,> 75 µM,> 75 µM,,> 75 µM,,
COc1ccccc1/C=C(/C)[N+](=O)[O-],,15.1 µM and 5.77 µM,,,,4.68 µM and 5.46 µM,10.2 µM and 3.46 µM,,13 µM and 4.21 µM,2.91 µM and 3.2 µM,,5.81,8.66 µM and 5.18 µM,2.1,5.18 µM and 3.72 µM,5.01 µM and 4.64 µM,5.72 µM and 3.97 µM,13.4 µM and 27.3 µM,0.263,2.89 µM and 6.42 µM
CC(C)(O)/C1=C/C=C/CCCCCCCCCC1,,> 100 µM,> 100,,,> 100 µM,> 100 µM,,> 100 µM,> 100 µM,,> 100,,> 100,> 100 µM,> 100 µM,> 100 µM,> 100 µM,,
COc1ccc(Nc2nc3ccccc3n3cccc23)cc1OC,,> 100 µM,27.6,,,69.7 µM,29.1 µM,,39 µM,31.2 µM,,27.9,43.6 µM,27.4,52.3 µM,33.3 µM,32.9 µM,> 100 µM,,
O=S(O)CCCCCSSc1ccccc1,,> 100 µM,> 100,,,> 100 µM,> 100 µM,,> 100 µM,42 µM,,> 100,,38.4,,53.3 µM,> 100 µM,> 100 µM,,
COc1cc(OC2OC(CO)C(O)C(O)C2O)c2c(O)c3c(=O)cc(C)oc3cc2c1 (centres undefined),,> 100 µM,> 100,,,> 100 µM,> 100 µM,,> 100 µM,> 100 µM,,> 100,> 100 µM,> 100,> 100 µM,> 100 µM,> 100 µM,> 100 µM,,
OCC1O[C@H](O[C@@H]2CCCN3CC(O)C(O)[C@@H]23)C(O)C(O)C1O (some centres undefined),,,> 100,,,> 100 µM,> 100 µM,,> 100 µM,> 100 µM,,> 100,> 100 µM,,> 100 µM,> 100 µM,> 100 µM,> 100 µM,,
FC(F)(F)c1ccc2c(c1)N(CCCNCCN1CCOCC1)c1ccccc1S2,,30.1 µM,4.06,,,24.7 µM,25 µM,,25.4 µM,30.6 µM,,24.7,28.3 µM,21.2,33.5 µM,13.9 µM,7.15 µM,23.4 µM,,
OCC#CCNCl,,> 100 µM,> 100,,,,> 100 µM,,,> 100 µM,,> 100,> 100 µM,> 100,> 100 µM,> 100 µM,> 100 µM,> 100 µM,,
CCOC(=O)Cc1cc(OC)c(OC)cc1/C(Cl)=C(\CO)c1ccc(OC)c(OC)c1,,> 100 µM,,,,> 100 µM,,,> 100 µM,,,> 100,> 100 µM,> 100,> 100 µM,,> 100 µM,,,
Cc1ccc(/C=C2\Sc3scc(-c4ccccc4)[n+]3C2=O)cc1,,> 72 µM,75,,,51.7 µM,> 49.5 µM,,53.1 µM,19.6 µM,,46.4,> 84.3 µM,> 54.5,> 56.8 µM,> 89.1 µM,,> 100 µM,,
Nc1nc(Nc2ccc(Cl)c(Cl)c2)nc2nc[nH]c12,,32 µM,27.9,,,25.2 µM,28.6 µM,,28.3 µM,29.3 µM,,34.9,33.6 µM,36.9,27 µM,39.2 µM,32.5 µM,75.3 µM,,
CCNC(=O)C(C)C1CCC2(C)C=CC(=O)C(C)=C2C1O (centres undefined),,> 100 µM,> 100,,,,> 100 µM,,,> 100 µM,,> 100,> 100 µM,> 100,> 100 µM,> 100 µM,,> 100 µM,,
